Measurements published in the supplement of paper PMC10307832.

How the values were obtained:
Test in all cases: relative viability (nuclei count vs DMSO), 5 days (fraction); higher = more cells survive
[1] = compound: CC1=C(N=C(N=C1N)[C@H](CC(=O)N)NC[C@@H](C(=O)N)N)C(=O)N[C@@H]([C@H](C2=CN=CN2)OC3C(C(C(C(O3)CO)O)O)OC4C(C(C(C(O4)CO)O)OC(=O)N)O)C(=O)N[C@H](C)[C@H]([C@H](C)C(=O)N[C@@H]([C@@H](C)O)C(=O)NCCC5=NC(=CS5)C6=NC(=CS6)C(=O)NCCC[S+](C)C)O [Bleomycin]; settings: main component drawn
How it was run: (§1)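 Five library-drug doses spaced by √10 were pinned onto vehicle-anchored 1536-well plates of lung cancer cell lines that had been kept overnight at 37 °C. Cells went 5 days without medium change, then were fixed, permeabilised and Hoechst-stained together, imaged at 4× and counted by MetaXpress. Viability is the ratio of treated-well to vehicle-well nuclei, taken as a median over plates. Plates required control CV below 25% and at least one doubling.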

[2] = compound: COc1cc([C@@H]2c3cc4c(cc3[C@@H](O[C@@H]3O[C@@H]5CO[C@@H](C)O[C@H]5[C@H](O)[C@H]3O)[C@H]3COC(=O)[C@H]23)OCO4)cc(OC)c1O [Etoposide]
How it was run: as §1

[3] = compound: CC1=C(N=C(N=C1N)[C@H](CC(=O)N)NC[C@@H](C(=O)N)N)C(=O)N[C@@H]([C@H](C2=CN=CN2)OC3C(C(C(C(O3)CO)O)O)OC4C(C(C(C(O4)CO)O)OC(=O)N)O)C(=O)N[C@H](C)[C@H]([C@H](C)C(=O)N[C@@H]([C@@H](C)O)C(=O)NCCC5=NC(=CS5)C6=NC(=CS6)C(=O)NCCC[S+](C)C)O [Bleomycin] + CC1(C)CCC(c2ccc(Cl)cc2)=C(CN2CCN(c3ccc(C(=O)NS(=O)(=O)c4ccc(N[C@H](CCN5CCOCC5)CSc5ccccc5)c(S(=O)(=O)C(F)(F)F)c4)cc3)CC2)C1 [Navitoclax] (partner 0.5 µM); settings: main component drawn
How it was run: (§2)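 Lung cancer cell lines were pin-tool dosed in 1536-well plates on the day after seeding, with either a lone drug or a fixed anchor-drug dose plus five library-drug doses (not always all listed) in √10 steps. Nuclei were counted on 4× images after 5 days. Relative viability is the ratio of treated-well to vehicle-well nuclei counts, with each value a median of duplicate plates.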

[4] = compound: CC1=C(N=C(N=C1N)[C@H](CC(=O)N)NC[C@@H](C(=O)N)N)C(=O)N[C@@H]([C@H](C2=CN=CN2)OC3C(C(C(C(O3)CO)O)O)OC4C(C(C(C(O4)CO)O)OC(=O)N)O)C(=O)N[C@H](C)[C@H]([C@H](C)C(=O)N[C@@H]([C@@H](C)O)C(=O)NCCC5=NC(=CS5)C6=NC(=CS6)C(=O)NCCC[S+](C)C)O [Bleomycin] + COc1cc2c(Oc3ccc(NC(=O)C4(C(=O)Nc5ccc(F)cc5)CC4)cc3F)ccnc2cc1OCCCN1CCOCC1 [Foretinib] (partner 0.25 µM); settings: main component drawn
How it was run: as §2

Question: What does the source list for HOP-62?
Answer: relative viability ([1]; 0.01 µM): 0.47; relative viability ([1]; 0.03162 µM): 0.473; relative viability ([1]; 0.1 µM): 0.257; relative viability ([1]; 0.3162 µM): 0.183; relative viability ([1]; 1 µM): 0.107; relative viability ([2]; 0.01 µM): 1.06; relative viability ([2]; 0.03162 µM): 1.11; relative viability ([2]; 0.1 µM): 0.824; relative viability ([2]; 0.3162 µM): 0.712; relative viability ([2]; 1 µM): 0.372; relative viability ([3]; first compound 0.01 µM): 0.367; relative viability ([3]; first compound 0.03162 µM): 0.405; relative viability ([3]; first compound 0.1 µM): 0.118; relative viability ([3]; first compound 0.3162 µM): 0.0652; relative viability ([3]; first compound 1 µM): 0.0435; relative viability ([4]; first compound 0.01 µM): 0.596; relative viability ([4]; first compound 0.03162 µM): 0.458; relative viability ([4]; first compound 0.1 µM): 0.39; relative viability ([4]; first compound 0.3162 µM): 0.193; relative viability ([4]; first compound 1 µM): 0.127

Question: For CAL-12T, which relative viability ([1]; 0.01 µM) is on record?
Answer: 0.755

Question: What about the relative viability ([1]; 0.03162 µM) of the same cell line?
Answer: 0.824

Question: And the relative viability ([1]; 0.1 µM)?
Answer: 0.545

Question: And the relative viability ([1]; 0.3162 µM)?
Answer: 0.273

Question: What about the relative viability ([1]; 1 µM) of the same cell line?
Answer: 0.202

Question: And the relative viability ([2]; 0.01 µM)?
Answer: 0.946

Question: What about the relative viability ([2]; 0.03162 µM) of the same cell line?
Answer: 1.04

Question: And the relative viability ([2]; 0.1 µM)?
Answer: 0.797

Question: What about the relative viability ([2]; 0.3162 µM) of the same cell line?
Answer: 0.726

Question: And the relative viability ([2]; 1 µM)?
Answer: 0.333

Question: What about the relative viability ([3]; first compound 0.01 µM) of the same cell line?
Answer: 0.964

Question: And the relative viability ([3]; first compound 0.03162 µM)?
Answer: 0.785

Question: And the relative viability ([3]; first compound 0.1 µM)?
Answer: 0.551

Question: And the relative viability ([3]; first compound 0.3162 µM)?
Answer: 0.228

Question: And the relative viability ([3]; first compound 1 µM)?
Answer: 0.201

Question: And the relative viability ([4]; first compound 0.01 µM)?
Answer: 0.993

Question: What about the relative viability ([4]; first compound 0.03162 µM) of the same cell line?
Answer: 0.706

Question: What about the relative viability ([4]; first compound 0.1 µM) of the same cell line?
Answer: 0.579

Question: And the relative viability ([4]; first compound 0.3162 µM)?
Answer: 0.199

Question: And the relative viability ([4]; first compound 1 µM)?
Answer: 0.174

Question: For NCI-H596, which relative viability ([1]; 0.01 µM) is on record?
Answer: 0.775

Question: What about the relative viability ([1]; 0.03162 µM) of the same cell line?
Answer: 0.754

Question: And the relative viability ([1]; 0.1 µM)?
Answer: 0.637

Question: And the relative viability ([1]; 0.3162 µM)?
Answer: 0.377

Question: And the relative viability ([1]; 1 µM)?
Answer: 0.412

Question: And the relative viability ([2]; 0.01 µM)?
Answer: 0.866

Question: And the relative viability ([2]; 0.03162 µM)?
Answer: 1.03

Question: What about the relative viability ([2]; 0.1 µM) of the same cell line?
Answer: 0.685

Question: What about the relative viability ([2]; 0.3162 µM) of the same cell line?
Answer: 0.877

Question: And the relative viability ([2]; 1 µM)?
Answer: 0.734

Question: What about the relative viability ([3]; first compound 0.01 µM) of the same cell line?
Answer: 0.648

Question: What about the relative viability ([3]; first compound 0.03162 µM) of the same cell line?
Answer: 0.534

Question: What about the relative viability ([3]; first compound 0.1 µM) of the same cell line?
Answer: 0.312

Question: What about the relative viability ([3]; first compound 0.3162 µM) of the same cell line?
Answer: 0.276

Question: And the relative viability ([3]; first compound 1 µM)?
Answer: 0.305

Question: And the relative viability ([4]; first compound 0.01 µM)?
Answer: 0.586

Question: And the relative viability ([4]; first compound 0.03162 µM)?
Answer: 0.629

Question: What about the relative viability ([4]; first compound 0.1 µM) of the same cell line?
Answer: 0.464

Question: What about the relative viability ([4]; first compound 0.3162 µM) of the same cell line?
Answer: 0.354

Question: And the relative viability ([4]; first compound 1 µM)?
Answer: 0.247

Question: With NCI-H1755 as the cell line, how does the relative viability ([1]; 0.01 µM) read?
Answer: 0.94

Question: What about the relative viability ([1]; 0.03162 µM) of the same cell line?
Answer: 1

Question: And the relative viability ([1]; 0.1 µM)?
Answer: 0.96

Question: What about the relative viability ([1]; 0.3162 µM) of the same cell line?
Answer: 0.813

Question: What about the relative viability ([1]; 1 µM) of the same cell line?
Answer: 0.673

Question: What about the relative viability ([2]; 0.01 µM) of the same cell line?
Answer: 0.998

Question: What about the relative viability ([2]; 0.03162 µM) of the same cell line?
Answer: 1.05

Question: And the relative viability ([2]; 0.1 µM)?
Answer: 0.963

Question: What about the relative viability ([2]; 0.3162 µM) of the same cell line?
Answer: 0.935

Question: And the relative viability ([2]; 1 µM)?
Answer: 0.829

Question: What about the relative viability ([3]; first compound 0.01 µM) of the same cell line?
Answer: 0.932

Question: And the relative viability ([3]; first compound 0.03162 µM)?
Answer: 0.933

Question: And the relative viability ([3]; first compound 0.1 µM)?
Answer: 0.945

Question: And the relative viability ([3]; first compound 0.3162 µM)?
Answer: 0.724

Question: What about the relative viability ([3]; first compound 1 µM) of the same cell line?
Answer: 0.394

Question: And the relative viability ([4]; first compound 0.01 µM)?
Answer: 0.838

Question: What about the relative viability ([4]; first compound 0.03162 µM) of the same cell line?
Answer: 0.976

Question: What about the relative viability ([4]; first compound 0.1 µM) of the same cell line?
Answer: 0.948

Question: What about the relative viability ([4]; first compound 0.3162 µM) of the same cell line?
Answer: 0.638

Question: What about the relative viability ([4]; first compound 1 µM) of the same cell line?
Answer: 0.592

Question: With NCI-H2023 as the cell line, how does the relative viability ([1]; 0.01 µM) read?
Answer: 0.698

Question: And the relative viability ([1]; 0.03162 µM)?
Answer: 0.68

Question: And the relative viability ([1]; 0.1 µM)?
Answer: 0.517

Question: And the relative viability ([1]; 0.3162 µM)?
Answer: 0.21

Question: And the relative viability ([1]; 1 µM)?
Answer: 0.142

Question: What about the relative viability ([2]; 0.01 µM) of the same cell line?
Answer: 0.868

Question: What about the relative viability ([2]; 0.03162 µM) of the same cell line?
Answer: 1.02

Question: What about the relative viability ([2]; 0.1 µM) of the same cell line?
Answer: 0.599

Question: And the relative viability ([2]; 0.3162 µM)?
Answer: 0.465

Question: What about the relative viability ([2]; 1 µM) of the same cell line?
Answer: 0.148

Question: And the relative viability ([3]; first compound 0.01 µM)?
Answer: 0.723

Question: And the relative viability ([3]; first compound 0.03162 µM)?
Answer: 0.72

Question: What about the relative viability ([3]; first compound 0.1 µM) of the same cell line?
Answer: 0.519

Question: And the relative viability ([3]; first compound 0.3162 µM)?
Answer: 0.244

Question: What about the relative viability ([3]; first compound 1 µM) of the same cell line?
Answer: 0.148

Question: And the relative viability ([4]; first compound 0.01 µM)?
Answer: 0.717

Question: And the relative viability ([4]; first compound 0.03162 µM)?
Answer: 0.641

Question: And the relative viability ([4]; first compound 0.1 µM)?
Answer: 0.522

Question: And the relative viability ([4]; first compound 0.3162 µM)?
Answer: 0.245

Question: What about the relative viability ([4]; first compound 1 µM) of the same cell line?
Answer: 0.162

Question: How did the relative viability ([1]; 0.01 µM) turn out when NCI-H2009 was run?
Answer: 0.953

Question: What about the relative viability ([1]; 0.03162 µM) of the same cell line?
Answer: 1.02

Question: And the relative viability ([1]; 0.1 µM)?
Answer: 1.01

Question: What about the relative viability ([1]; 0.3162 µM) of the same cell line?
Answer: 0.659

Question: And the relative viability ([1]; 1 µM)?
Answer: 0.566

Question: And the relative viability ([2]; 0.01 µM)?
Answer: 1.02

Question: And the relative viability ([2]; 0.03162 µM)?
Answer: 1.03

Question: What about the relative viability ([2]; 0.1 µM) of the same cell line?
Answer: 0.938

Question: What about the relative viability ([2]; 0.3162 µM) of the same cell line?
Answer: 0.765

Question: What about the relative viability ([2]; 1 µM) of the same cell line?
Answer: 0.42

Question: What about the relative viability ([3]; first compound 0.01 µM) of the same cell line?
Answer: 1.16

Question: What about the relative viability ([3]; first compound 0.03162 µM) of the same cell line?
Answer: 1.18

Question: And the relative viability ([3]; first compound 0.1 µM)?
Answer: 1.09

Question: What about the relative viability ([3]; first compound 0.3162 µM) of the same cell line?
Answer: 0.858

Question: What about the relative viability ([3]; first compound 1 µM) of the same cell line?
Answer: 0.532

Question: And the relative viability ([4]; first compound 0.01 µM)?
Answer: 0.775

Question: What about the relative viability ([4]; first compound 0.03162 µM) of the same cell line?
Answer: 1.29

Question: And the relative viability ([4]; first compound 0.1 µM)?
Answer: 1.25

Question: What about the relative viability ([4]; first compound 0.3162 µM) of the same cell line?
Answer: 0.969

Question: And the relative viability ([4]; first compound 1 µM)?
Answer: 0.639
